Laboratory results as given in paper PMC12207533, “Structure-guided design of a methyltransferase-like 3 (METTL3) proteolysis targeting chimera (PROTAC) incorporating an indole–nicotinamide chemotype” (RSC Medicinal Chemistry, 2025).
Values joined by “and” are separate entries in the source; they are usually repeats but may differ in a detail not shown here. Equal entries are not always repeated.

Legend:
[1] = biological target: T1, VCB (VHL, elongin B, elongin C) (Homo sapiens, UniProt P40337); assay: FP displacement assay with VCB (binary and ternary KD, cooperativity); assay type: binding; conditions: presence of METTL3/14 (12 μM), read-out: KD ternary (VHL)
T1 construct: VHL (UniProt: P40337, aa 1–213); His6 (N); made in house; host or cells: E. coli BL21 (DE3)
T1 sequence (P40337 whole entry, the tested form may be a part): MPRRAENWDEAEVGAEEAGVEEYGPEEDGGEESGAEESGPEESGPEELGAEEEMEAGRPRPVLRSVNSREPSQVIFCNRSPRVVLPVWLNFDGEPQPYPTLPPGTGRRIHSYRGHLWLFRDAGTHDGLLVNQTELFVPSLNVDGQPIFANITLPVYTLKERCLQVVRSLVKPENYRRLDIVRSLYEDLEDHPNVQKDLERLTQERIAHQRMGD
T1 sequence (Q15370 whole entry partner, the tested form may be a part): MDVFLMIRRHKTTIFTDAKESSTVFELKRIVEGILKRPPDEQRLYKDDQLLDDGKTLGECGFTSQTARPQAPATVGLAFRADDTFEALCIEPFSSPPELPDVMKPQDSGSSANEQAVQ
T1 sequence (Q15369 17-112 partner limits assumed): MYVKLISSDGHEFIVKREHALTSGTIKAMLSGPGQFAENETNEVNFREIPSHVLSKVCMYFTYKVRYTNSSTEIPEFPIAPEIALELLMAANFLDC
Procedure: Fluorescence polarization (FP) displacement assays with METTL3/14 (ref. [36]) and VCB[38–40] were performed following previous protocols with slight adaptations. All experiments were conducted in black Greiner 96-well half-area plates using a Tecan Spark 10 M plate reader, equipped with polarization filters coupled to a monochromator setup (λex = 480 nm, λem = 530 nm). Reaction mixtures for METTL3/14 contained 300 nM recombinant enzyme, 20 nM FAM-labelled displacement tracer (STM-FL[36]), and the test compounds at varying concentrations in 25 mM Tris HCl, pH 7.5, 100 mM NaCl, and 10% DMSO. For VCB, the mixtures contained 40 nM recombinant enzyme, 10 nM FAM-labelled probe (FAM-DEALAHyp[…], Tocris Bioscience), and the tested compounds, at varying concentrations, in 50 mM Tris, pH 7.5, 200 mM NaCl, 2 mM DTT, and 10% DMSO. […] All measurements were performed at least as technical triplicates. Polarization values (mP) were determined from polarization-specific parallel and orthogonal fluorescence intensities using the Tecan in-built calculation routine. Using GraphPad Prism 8.0.1, the FP values were normalized, and KD values were calculated using a 4-parameter Hill equation: y(% probe bound) = bottom + ([ligand]slope) × (top–bottom)/([ligand]slope + KD slope).

Mcl-1 = assay: Immunoblotting of Mcl-1 protein levels in MOLM-13 cells; assay type: cell-based, human; conditions: 2 μM, time course
Procedure: (§1) MOLM-13 were seeded in 12-well cell culture plates at a density of 1 × 10^6 cells per mL and treated with DMSO (final: 0.1%) or different concentrations of PROTAC degraders in DMSO at the indicated times. Treatments were conducted in biological triplicate with varying passages of MOLM-13 cells. The cells were harvested by centrifugation at 500g for 5 min and washed with PBS. The cells were lysed with RIPA lysis buffer with the addition of protease inhibitor (1× cOMPLETE), and insoluble cellular parts were separated by centrifugation (12 000g for 10 min), subsequently, the supernatant was boiled with 1× Laemmli sample buffer (Carl Roth) for 5 min at 95 °C. Proteins were separated by SDS–PAGE on 4–20% Criterion™ TGX™ Precast Protein Gels (Bio-Rad) and transferred to Amersham™ Protean® 0.45 μm nitrocellulose membrane (Cytiva) using semi-dry transfer (25 V, 1 A, Towbin buffer). […] The protein bands were detected via chemiluminescence using Pierce™ ECL western blotting substrate and a Fusion FX imaging system (Vilber). The ImageLab software (Bio-Rad) was used for band quantification.

METTL14 mRNA = assay: RT-qPCR of METTL14 mRNA expression; assay type: cell-based, human; conditions: MOLM-13, AF151 2 μM or STM2457 10 μM, 24 h and 48 h
Procedure: To determine mRNA expression levels of METTL3 and METTL14, MOLM-13 cells were treated in triplicate with compound 41 (AF151, 2 μM), STM2457 (10 μM), and DMSO for 24 resp. 48 h. Afterward, total RNA was extracted using the TRIzol™ reagent (Thermo Fisher Scientific) and purified with the Monarch® Spin RNA Cleanup Kit (New England Biolabs). RT-qPCR was conducted using the two-step GoTaq® RT-qPCR system (Promega) following the manufacturer's protocol. The data were normalized to the DMSO control and GAPDH housekeeping gene (ΔΔCt) using GraphPad Prism 8.0.1.

[2] = tested on: m^6A levels in MOLM-13 mRNA; assay: RNA m^6A quantification (colorimetric kit); assay type: cell-based, human; conditions: MOLM-13, AF151 2 μM vs STM2457 10 μM, 24 and 48 h
Procedure: Quantification of m^6A levels upon compound treatment was conducted in analogy to the study introducing the WD6305 PROTAC.[31] MOLM-13 cells were treated with AF151 (2 μM), STM2457 (10 μM), and DMSO in triplicate for 24 and 48 h. Total RNA was isolated as specified above. PolyA mRNA was then isolated using the PolyATtract® mRNA Isolation System (Promega). m^6A levels were quantified using a colorimetric m^6A RNA methylation Assay Kit (Abcam) as specified in the manufacturer's protocol.

Bcl-XL = assay: Immunoblotting of Bcl-XL protein levels in MOLM-13 cells; assay type: cell-based, human; conditions: 2 μM, time course
Procedure: as §1

human VHL = biological target: T2, human VHL (Homo sapiens, UniProt P40337); assay: HTRF human VHL binding kit
T2 construct: purchased Revvity
T2 sequence (P40337 whole entry): as the sequence (P40337 whole entry, the tested form may be a part) above
T2 sequence (Q15370 whole entry partner): as the sequence (Q15370 whole entry partner, the tested form may be a part) above
T2 sequence (Q15369 whole entry partner): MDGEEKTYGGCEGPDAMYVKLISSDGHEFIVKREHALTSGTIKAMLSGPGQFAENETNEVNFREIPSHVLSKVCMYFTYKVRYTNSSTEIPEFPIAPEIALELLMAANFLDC
Procedure: PROTACs binding to VHL or CRBN were measured using a homogeneous time-resolved fluorescence (HTRF) human VHL or CRBN binding kit (Revvity). Samples were prepared according to the manufacturer's protocol, with compounds diluted in the provided diluent while maintaining a constant DMSO concentration with a final concentration of 1.25%. For the ternary KD determinations, METTL3/14 was added at 4 μM, corresponding to approximately a 20- to 40-fold excess of binary KD, while all other component concentrations were kept as specified in the protocol. Measurements were performed in triplicate using a Tecan Spark 10 M plate reader, recording donor and acceptor emissions at λem_donor = 620 nm and λem_acceptor = 665 nm, respectively, following excitation of the HTRF donor at λex = 320 nm. The acceptor-to-donor emission ratio was calculated as ratio = signal 665 nm/signal 620 nm. Using GraphPad Prism 8.0.1, the fluorescence values were normalized, and KD values were calculated as specified above.

MOLM-13 cells [3] = assay: Cell viability assay (CellTiter Glo 2.0); assay type: cell-based, human; conditions: Homo sapiens, MOLM-13, 72 h; read-out: IC50 (cell viability inhibition)
Procedure: (§2) To determine cell viability, MOLM-13 cells were treated with the indicated compounds in a 1 : 1 serial dilution, with pure DMSO (final: 0.1%) as the negative control. Briefly, 1000 cells were seeded in black Greiner half-area 96-well plates and incubated for 72 h with inhibitors from DMSO stocks under standard cultivation conditions. Then, Promega CellTiter Glo 2.0 reagent was added to each well according to the manufacturer's protocols, and luminescence was measured using a Tecan Spark 10 M. Experiments were conducted in technical triplicate. Data was normalized to the DMSO control and analyzed with GraphPad Prism 8.0.1 to determine EC50 values. Synergistic effects of venetoclax and AF151 on cell MOLM-13 viability were conducted accordingly, with dilution series of both compounds analyzed using the SynergyFinder+ webtoolkit.[57]

METTL14 = assay: Immunoblotting of METTL14 protein levels in MOLM-13 cells; assay type: cell-based, human
Procedure: as §1

MOLM-13 cells [4] = assay: Real-time annexin V apoptosis assay; assay type: cell-based, human; conditions: MOLM-13, dose-dependent, monitored over 48 h
Procedure: MOLM-13 cells were treated with AF151 at the indicated concentrations for 48 h, with DMSO (final: 0.1%) as the negative control. Apoptosis of technical triplicate samples was detected in real-time using the RealTime-Glo™ annexin V apoptosis assay kit (Promega), following the manufacturer's protocol. Data were plotted using GraphPad Prism 8.0.1.

MOLM-13 cells [5] = assay: Synergy analysis (ZIP, SynergyFinder+) of AF151 and venetoclax on cell viability; assay type: cell-based, human; conditions: co-treatment with venetoclax, 72 h
Procedure: as §2

Bcl-2 = assay: Immunoblotting of Bcl-2 protein levels in MOLM-13 cells; assay type: cell-based, human; conditions: 2 μM, time course
Procedure: as §1

- Kd [1]: 79.9 nM and 77 nM
- Kd (human VHL; HTRF Human VHL Binding Kit, binary, read-out: KD E3-ligases (VHL, HTRF)): 740 ± 113 nM
- cooperativity (HTRF) (human VHL; VHL affinity in presence and absence of METTL3/14 (4 μM)): positive cooperativity
- IC50 (MOLM-13 cells [3]): 450 nM
SMILES: Cc1ncsc1-c1ccc(CNC(=O)[C@@H]2C[C@@H](O)CN2C(=O)[C@@H](NC(=O)CCc2ccc(-c3ccc(COc4cncc(C(=O)NCc5ccc6cc(CN7CCC(C)(C)CC7)[nH]c6c5)c4)cc3)cc2)C(C)(C)C)cc1 [compound 41]
- effect on Mcl-1 protein level (Mcl-1): time-dependent reduction
- METTL14 mRNA level (ΔΔCt) (METTL14 mRNA): no significant changes
- global m^6A level reduction in mRNA [2]: more pronounced m^6A reduction
- effect on Bcl-XL protein level (Bcl-XL): but not Bcl-XL
- METTL14 protein level relative to DMSO (transient increase) (METTL14; 2 μM, after 1 h, MOLM-13): ~150%
- METTL14 degradation (Western blot) (METTL14; MOLM-13, 1 μM, 16 h): significant degradation
- time to apoptosis induction (MOLM-13 cells [4]): approximately 10 h
- maximum ZIP synergy score (MOLM-13 cells [5]): 28.87
- mean ZIP synergy score (MOLM-13 cells [5]): 3.38
- effect on Bcl-2 protein level (Bcl-2): time-dependent reduction
- t1/2 of Bcl-2 protein level decrease (Bcl-2): 18 h
